Residues, ends and D or L forms follow the SMILES beside them. *: point of attachment. Cbz = O=C(OCc1ccccc1)*; CH2F = FC*
Key:
sensory neurons = assay: NGF deprivation assay in Campenot Chambers, local sensory axon degeneration (TUJ1 stain); assay type: cell-based, mouse
Protocol: Materials and methods used to generate the data shown in this figure are as follows. To examine whether ligand is required for DR6 function in sensory axonal degeneration, a compartmented culture analysis of sensory axon growth and degeneration was carried out as follows. A Campenot nerve cell chamber system was used to isolate neuronal processes (axons) from the cell bodies in different compartments (separate fluid environments), analogous to neuronal cell bodies in one location of the nervous system projecting their axons to a distal target in another location. The assay was carried out as originally described by Campenot (Campenot et al., J. Neurosci. 11(4): 1126-39 (1991)) with the following modifications. Briefly, 35-mm tissue culture dishes were coated with PDL/Laminin and scratched with a pin rake (Tyler Research) to generate tracks, as illustrated for example in FIGS. 1 and 4 of Campenot et al., supra. […]
To trigger local axonal degeneration, NGF-containing medium from axonal compartments was substituted with neurobasal medium with an NGF blocking antibody (anti-NGF, Genentech, Inc., 20 ug/ml). Zero hours, 6 hours, or 24 to 48 hours following NGF deprivation, sensory neurons were fixed in 4% PFA for 30 minutes at room temperature and processed for immunofluorescence staining with axonal marker TUJ-1 (Covance, 1:500 dilution) to visualize degenerating axons by fluorescence microscopy (FIG. 11B) (as above described in Example 7). […]
To examine whether ligand is required for DR6 function in axonal degeneration program triggered by NGF withdrawal, 30 μg/ml of hDR6-ECD-Fc immunoadhesin protein (described in Example 3 above) or 30 μg/ml of a control Fc (Genentech, Inc.) was included together with anti-NGF treatment in axonal compartments of Campenot Chambers. Zero to 24 hours after NGF deprivation, axons in Campenot Chambers were fixed with 4% PFA/PBS and visualized by immuno-fluorescence staining with TUJ-1 (1:500, Covance)/secondary antibody conjugated to a fluorescence group Alexa 488 (Molecular Probes, BD) (FIG. 11B). […]

[1] = test system: DR6-AP binding sites on BAX null sensory axons; assay: In situ DR6-AP sensory axon binding assay after NGF withdrawal; assay type: cell-based, mouse; settings: OM99-2 1 uM; BAX null sensory axons E12.5
Protocol: For the in situ DR6-AP sensory axon binding assay, either wild-type or Bax null sensory explants were cultured in Neurobasal medium/B27 (Invitrogen) as outlined in the Examples 7-8 above, with 50 ng/ml NGF (Roche). Two days post-plating, DRG explants were either left untreated or deprived from NGF as described above in Examples 7-8. Bax inhibitory peptide was added where indicated on FIG. 12B (10 uM, Bax-V5, Tocris). Twelve hours post-NGF deprivation, DRG explants were washed twice with the binding buffer (HBSS, Gibco Cat. No. 14175-095, with 0.2% BSA, 0.1% NaN3, 5 mM CaCl2, 1 mM MgCl2, 20 mM HEPES, pH=7.0). AP binding assay was then carried out by making a 1:1 mixture of DR6-AP conditioned medium and the binding buffer (or control AP conditioned medium and the binding buffer), which was applied directly to DRG explants in 8-well culture slides (Becton, Dickinson and Company) and incubated for 90 minutes at room temperature.
Following the incubation, unbound DR6-AP proteins were washed away by rinsing DRG explants five times with the binding buffer. DRG explants were then fixed with 3.7% formaldehyde diluted in PBS, for 12 minutes at room temperature. The remaining formaldehyde was removed by rinsing DRG explants 3 times with HBS buffer (20 mM HEPES pH=7.0, 150 mM NaCl). Endogenous AP activity was blocked by heat inactivation at 65° C. in HBS buffer for 30 minutes. […]

commissural neurons = assay: Dorsal spinal cord (commissural explant) survival assay; assay type: cell-based, rat
Protocol: To examine functional roles of DR6 in axonal degeneration and programmed cell death of commissural neurons, an RNAi-based dorsal spinal cord survival assay (Kennedy et al., Cell, 78:425-435 (1994); Wang et al., supra, 1999) was conducted (see FIG. 3). E13 rat or E11.5 mouse embryos were placed in L15 medium (Gibco) and siRNAs (IDT) together with green fluorescent protein (“GFP”)-encoding plasmids were injected into the neural tubes. The siRNAs and plasmids were then delivered to dorsal progenitor cells by electroporation. Dorsal spinal cord explants were dissected out, embedded into a 3D-collagen gel matrix, and cultured in Opti-MEM/F12 medium (Invitrogen) with recombinant netrin-1 ([…]) and 5% horse serum (Sigma) at 37° C. in a 5% CO2 environment. Within 16 hours in response to chemo-attractant netrin-1, commissural axons grow out of the explant into the collagen matrix gel (Kennedy et al., supra, 1994). Commissural axons are visualized by GFP fluorescence by observation using an inverted microscope. […]
Control non-targeting, or targeting DR6 siRNA #2, or targeting DR6 siRNA #3 (IDT) together with either wild-type or mis-match DR6 cDNA and GFP-encoding plasmids. […] Within 16 hours in response to chemo-attractant netrin-1 commissural axons grow out of the explant into the collagen matrix gel (Kennedy et al., Cell 78:425-435 (1994). Commissural axons are visualized by GFP fluorescence by observation using inverted microscope. After 48 hours in culture in the absence of trophic factor support derived from the floorplate, commissural neurons undergo programmed cell death and their axons degenerate (Wang et al., Nature, 401:765-769 (1999)) (FIG. 4B). However, the axonal degeneration program can be blocked by introduction of a targeting DR6-specific siRNA #3 (FIG. 4B). […]
A dorsal spinal cord survival assay (as described in Example 2 above) was conducted using anti-DR6 antibodies. Microscopic observation (using green fluorescence channel for GFP) was employed to visualize commissural axons. […]

[2] = patients taking stable doses of Donepezil; changes from baseline; cited from earlier work

Compound: OM99-2
- sensory axonal degeneration in absence of NGF (sensory neurons; BACE inhibitor 1 uM, FIG. 15C): blocked
- disappearance of DR6-AP binding sites from sensory axons following NGF withdrawal [1]: can block the disappearance of DR6-AP binding sites

Compound: 5′-CAAUAGGUCAGGAAGAUGGCU-3′ [DR6-specific siRNA #3]
- axonal degeneration of commissural neurons (commissural neurons; DR6 siRNA electroporated with GFP plasmid, 48 hours in culture without floorplate trophic support): blocked

Compound: hDR6-ECD-Fc: human DR6 extracellular domain sequence fused with Fc, SEQ ID NO: 4
- commissural axon degeneration (commissural neurons; 48 hours, 30 μg/ml or 10 μg/ml hDR6-ECD-Fc): delayed
- sensory axonal degeneration induced by NGF withdrawal (sensory neurons; 30 μg/ml in axonal compartment with anti-NGF, 0, 6 and 24 hours, vs control Fc): delayed sensory axonal degeneration

Compound: CC[C@H](C)[C@H](NC(=O)OCc1ccccc1)C(=O)N[C@@H](CCC(=O)OC)C(=O)N[C@H](C(=O)N[C@@H](CC(=O)OC)C(=O)CF)[C@@H](C)O [Z-IETD-FMK] (Cbz-IE(OMe)TD(OMe)-CH2F)
- sensory axonal degeneration after anti-NGF (sensory neurons; neurons cultured 5 days, then 24 hours, SP 600125 1 uM, Z-IETD-FMK 10 uM, Z-DEVD-FMK 10 uM): delayed

Compound: CC12CC3CC(C)(C1)CC(N)(C3)C2 [Memantine]
- outcome measures SIB, ADCS-ADL19, CIBIC-Plus, NPI, BGP vs placebo [2]: exhibiting a benefit over placebo

Compound: (L)-HIV-TAT48-57-PP-JBD20 [L-JNK-I]
- axonal degeneration of commissural neurons (commissural neurons; peptide JNK inhibitor at 1 μM): partially blocked axonal degeneration

Reference: patent US20110223630A1, “METHOD FOR SCREENING FOR COMPOUNDS THAT INHIBIT NEURODEGENERATION” (priority 2008, published 2011)
